Measured values reported in PMC12238723, “Phase I Clinical Trial of CVL218, a Novel PARP1/2 Inhibitor, in Patients with Advanced Solid Tumors” (MedComm, 2025).

Test system: patients with advanced solid tumors
Assay: Treatment-related adverse events (CTCAE v5.0), phase I dose escalation
Format: in vivo
Description: This study was a single‐arm, dose‐escalation phase I trial conducted in Sun Yat‐sen University Cancer Center in China. This study assessed CVL218 in patients with histologically or cytologically confirmed advanced solid tumors who were in PD after standard therapeutic regimens or lacked standard treatment options. Inclusion criteria included: age 18–75 years; with at least one measurable and evaluable target lesion per Response Evaluation Criteria in Solid Tumors 1.1 (RECIST 1.1); ECOG performance status of 0 or 1; adequate hematological, renal, cardiac, and hepatic functions and a life expectancy ≥12 weeks. Key exclusion criteria included prior usage of PARP inhibitors; allergic to the research drug or its components; with active, unstable systemic diseases or active, uncontrolled infection; a history of other malignancies within 5 years, and pregnant or lactating women.
CVL218 was administered orally, and this dose‐escalation trial included nine dose levels: 100 mg QD (50 mg BID), 200 mg QD (100 mg BID), 400 mg QD (200 mg BID), 700 mg QD (350 mg BID), 1000 mg QD (500 mg BID), 1200 mg QD (600 mg BID), 1400 mg QD (700 mg BID), 1700 mg QD (850 mg BID), and 2000 mg QD (1000 mg BID). Patients enrolled in the study received a single oral dose on the first day, followed by continuous multiple dosing (twice a day taking 12 h apart) after 72 h, with the treatment cycle lasting 4 weeks. The period during which patients received a single dose is designated as cycle 0 (C0), lasting 72 h. After this period, patients begin multiple dosing, referred to as cycle 1 (C1). An initial accelerated titration design was employed for the three lowest dose groups, and the “3+3” design was applied starting with the 300 mg BID cohort.
The primary objectives were to assess safety and tolerability as well as to determine the MTD, DLT, and dose recommended for further study. DLT was defined as any of the following events occurring during cycle 0 (including 72 h wash‐out period after a single dose) and cycle 1 per Common Terminology Criteria for Adverse Events (CTCAE) version 5.0: grade 4 anemia; grade 4 neutropenia; grade 3 neutropenia with fever ≥38.5°C; grade 4 thrombocytopenia; grade 3 thrombocytopenia associated with bleeding; grade ≥2 neurotoxicity; any other grade ≥3 nonhematological toxicities (excluding alopecia). The secondary objectives were to assess the PK and preliminary efficacy of CVL218.
Subjects who received at least one dose of CVL218 with postadministration safety records were included in safety analysis set. Subjects who received at least one dose of CVL218 with at least one evaluable PK parameter were included in PK analysis set. Per‐protocol set were used for efficacy analysis. Descriptive statistics of safety were presented per CTCAE v5.0. The PK parameters T max and T 1/2 were shown as the median (min, max) and mean ± SD, respectively. A two‐sided p < 0.05 was considered to indicate statistical significance. Statistical analysis was performed by using GraphPad prism 8.0.2 and R‐4.3.3.

CNCc1ccc(-c2cc3cc(F)cc(C(N)=O)c3o2)cc1.Cl [CVL218]
1 (100) n (%): Infusion site pain (200 mg BID, ALL)
0 n (%): Infusion site pain (50 mg BID, ALL) | WBC count increased (50 mg BID, ALL) | ALT increased (50 mg BID, ≥G3) | AST increased (50 mg BID, ≥G3) | Abdominal distension (50 mg BID, ≥G3) | Abdominal pain (50 mg BID, ≥G3) | Abdominal pain upper (50 mg BID, ≥G3) | Amylase increased (50 mg BID, ≥G3) | Anemia (50 mg BID, ≥G3) | Any AE related to study drug (50 mg BID, ≥G3) | Asthenia (50 mg BID, ≥G3) | Blood creatinine increased (50 mg BID, ≥G3) | Blood system disorders (50 mg BID, ≥G3) | Blood triglycerides increased (50 mg BID, ≥G3) | Blood urea increased (50 mg BID, ≥G3) | Cardiac disorders (50 mg BID, ≥G3) | Chest discomfort (50 mg BID, ≥G3) | Constipation (50 mg BID, ≥G3) | Decreased appetite (50 mg BID, ≥G3) | Diarrhea (50 mg BID, ≥G3) | Dizziness (50 mg BID, ≥G3) | Erectile dysfunction (50 mg BID, ≥G3) | Gastrointestinal disorders (50 mg BID, ≥G3) | General disorders (50 mg BID, ≥G3) | Gingival bleeding (50 mg BID, ≥G3) | Granulocyte count increased (50 mg BID, ≥G3) | Headache (50 mg BID, ≥G3) | Hypoalbuminemia (50 mg BID, ≥G3) | Infusion site pain (50 mg BID, ≥G3) | Laboratory test disorders (50 mg BID, ≥G3) | Limb discomfort (50 mg BID, ≥G3) | Lipase increased (50 mg BID, ≥G3) | Metabolic disorders (50 mg BID, ≥G3) | Musculoskeletal discomfort (50 mg BID, ≥G3) | Musculoskeletal disorders (50 mg BID, ≥G3) | Nausea (50 mg BID, ≥G3) | Nervous system disorders (50 mg BID, ≥G3) | Neutrophil count decreased (50 mg BID, ≥G3) | Neutrophil count increased (50 mg BID, ≥G3) | Palpitations (50 mg BID, ≥G3) | Protein urine present (50 mg BID, ≥G3) | Proteinuria (50 mg BID, ≥G3) | Rash (50 mg BID, ≥G3) | Renal & urinary disorders (50 mg BID, ≥G3) | Renal failure (50 mg BID, ≥G3) | Reproductive disorders (50 mg BID, ≥G3) | Skin disorders (50 mg BID, ≥G3) | Urinary occult blood positive (50 mg BID, ≥G3) | Vomiting (50 mg BID, ≥G3) | WBC count decreased (50 mg BID, ≥G3) | WBC count increased (50 mg BID, ≥G3) | Infusion site pain (100 mg BID, ALL) | WBC count increased (100 mg BID, ALL) | ALT increased (100 mg BID, ≥G3) | AST increased (100 mg BID, ≥G3) | Abdominal distension (100 mg BID, ≥G3) | Abdominal pain (100 mg BID, ≥G3) | Abdominal pain upper (100 mg BID, ≥G3) | Amylase increased (100 mg BID, ≥G3) | Anemia (100 mg BID, ≥G3) | Any AE related to study drug (100 mg BID, ≥G3) | Asthenia (100 mg BID, ≥G3) | Blood creatinine increased (100 mg BID, ≥G3) | Blood system disorders (100 mg BID, ≥G3) | Blood triglycerides increased (100 mg BID, ≥G3) | Blood urea increased (100 mg BID, ≥G3) | Cardiac disorders (100 mg BID, ≥G3) | Chest discomfort (100 mg BID, ≥G3) | Constipation (100 mg BID, ≥G3) | Decreased appetite (100 mg BID, ≥G3) | Diarrhea (100 mg BID, ≥G3) | Dizziness (100 mg BID, ≥G3) | Erectile dysfunction (100 mg BID, ≥G3) | Gastrointestinal disorders (100 mg BID, ≥G3) | General disorders (100 mg BID, ≥G3) | Gingival bleeding (100 mg BID, ≥G3) | Granulocyte count increased (100 mg BID, ≥G3) | Headache (100 mg BID, ≥G3) | Hypoalbuminemia (100 mg BID, ≥G3) | Infusion site pain (100 mg BID, ≥G3) | Laboratory test disorders (100 mg BID, ≥G3) | Limb discomfort (100 mg BID, ≥G3) | Lipase increased (100 mg BID, ≥G3) | Metabolic disorders (100 mg BID, ≥G3) | Musculoskeletal discomfort (100 mg BID, ≥G3) | Musculoskeletal disorders (100 mg BID, ≥G3) | Nausea (100 mg BID, ≥G3) | Nervous system disorders (100 mg BID, ≥G3) | Neutrophil count decreased (100 mg BID, ≥G3) | Neutrophil count increased (100 mg BID, ≥G3) | Palpitations (100 mg BID, ≥G3) | Protein urine present (100 mg BID, ≥G3) | Proteinuria (100 mg BID, ≥G3) | Rash (100 mg BID, ≥G3) | Renal & urinary disorders (100 mg BID, ≥G3) | Renal failure (100 mg BID, ≥G3) | Reproductive disorders (100 mg BID, ≥G3) | Skin disorders (100 mg BID, ≥G3) | Urinary occult blood positive (100 mg BID, ≥G3) | Vomiting (100 mg BID, ≥G3) | WBC count decreased (100 mg BID, ≥G3) | WBC count increased (100 mg BID, ≥G3) | WBC count increased (200 mg BID, ALL) | ALT increased (200 mg BID, ≥G3) | AST increased (200 mg BID, ≥G3) | Abdominal distension (200 mg BID, ≥G3) | Abdominal pain (200 mg BID, ≥G3) | Abdominal pain upper (200 mg BID, ≥G3) | Amylase increased (200 mg BID, ≥G3) | Anemia (200 mg BID, ≥G3) | Any AE related to study drug (200 mg BID, ≥G3) | Asthenia (200 mg BID, ≥G3) | Blood creatinine increased (200 mg BID, ≥G3) | Blood system disorders (200 mg BID, ≥G3) | Blood triglycerides increased (200 mg BID, ≥G3) | Blood urea increased (200 mg BID, ≥G3) | Cardiac disorders (200 mg BID, ≥G3) | Chest discomfort (200 mg BID, ≥G3) | Constipation (200 mg BID, ≥G3) | Decreased appetite (200 mg BID, ≥G3) | Diarrhea (200 mg BID, ≥G3) | Dizziness (200 mg BID, ≥G3) | Erectile dysfunction (200 mg BID, ≥G3) | Gastrointestinal disorders (200 mg BID, ≥G3) | General disorders (200 mg BID, ≥G3) | Gingival bleeding (200 mg BID, ≥G3) | Granulocyte count increased (200 mg BID, ≥G3)
